Assay results taken from patent US20130225641A1, “ANTICANCER COMPOUNDS AND PREPARATION METHODS THEREOF” (priority 2010, published 2013).

Columns and labels:
[1] = tested on: HepG3B; assay: MTT cytotoxicity, HepG3B; type: cell-based; conditions: Homo sapiens, Liver, 72 hrs, read-out: LC50 (the source's name)
Description: (§1) The cytotoxicity of ZTP and ZTQ was analyzed by using human tumor cell lines. Human tumor cell lines were purchased from ATCC and NCI, and cultured in DMEM medium containing 10% FBS at 37° C. in 5% CO2 in an incubator. The cells grown to confluence were used for cytotoxicity analysis. The cells were digested with trypsin, washed with the culture medium, and then counted. 33 tumor cell lines were cultured. The cells were seeded at a density of 3000-6000 cells/well in a 96-well plate and incubated for 16-24 hrs. Then, various concentrations of ZTP or ZTQ dissolved in DMSO were added, and cultured for 72 hrs. The drug-treated cells and control cells were analyzed by MTT.

[2] = tested on: LoVo; assay: MTT cytotoxicity, LoVo; type: cell-based; conditions: Homo sapiens, Colonic, 72 hrs, read-out: LC50 (the source's name)
Description: as §1

[3] = tested on: CNE-2Z; assay: MTT cytotoxicity, CNE-2Z; type: cell-based; conditions: Homo sapiens, CNE2Z, Nasopharyngeal, 72 hrs, read-out: LC50 (the source's name)
Description: as §1

[4] = tested on: NCI-H23; assay: MTT cytotoxicity, NCI-H23; type: cell-based; conditions: Homo sapiens, NCI-H23, Lung, 72 hrs, read-out: LC50 (the source's name)
Description: as §1

[5] = tested on: CCL-247; assay: MTT cytotoxicity, CCL-247; type: cell-based; conditions: Homo sapiens, CCL-247, Colonic, 72 hrs, read-out: LC50 (the source's name)
Description: as §1

[6] = tested on: HCT-116; assay: MTT cytotoxicity, HCT-116; type: cell-based; conditions: Homo sapiens, HCT-116, Colonic, 72 hrs, read-out: LC50 (the source's name)
Description: as §1

[7] = tested on: 786-O; assay: MTT cytotoxicity, 786-O; type: cell-based; conditions: Homo sapiens, 786-0, Renal, 72 hrs, read-out: LC50 (the source's name)
Description: as §1

[8] = MTT cytotoxicity, HUMEC human microvascular endothelial cell; type: cell-based; conditions: HUMEC human microvascular endothelial cells, read-out: LC50
Description: [Worded in the source for another cell line; this cell line is reported under the same test.] as §1

[9] = tested on: MCF-10a; assay: MTT cytotoxicity, MCF-10a normal mammary epithelial cell; type: cell-based, human; conditions: cells still grow well at a concentration up to 30 μm
Description: [Worded in the source for another cell line; this cell line is reported under the same test.] as §1

[10] = as above; type: cell-based, human; conditions: human, MCF-10a normal mammary epithelial cells; MCF-10a, Normal mammary epithelial cell; 72 hrs, MTT; read-out: LC50
Description: [Worded in the source for another cell line; this cell line is reported under the same test.] as §1

[11] = tested on: human colon cancer cells (HCT-116); assay: Transplantation model of human colon cancer (HCT-116) in nude mice; type: in vivo, nude mice (nu/nu); conditions: HCT-116 subcutaneous in nude mice; oral daily 5 days/week, 3 weeks; ZTP 30 mg/kg, ZTQ 60 mg/kg; lower = stronger
Description: T-cell deficient nude mice (nu/nu) of 6 weeks old were purchased from Charles River Laboratory, and housed and treated in a sterile environment following Institutional Animal Care & Use Committee Program. 48 mice were respectively subcutaneously inoculated on ribbed belly with 5×10^6 human liver cancer cells (HepG3B), human lung caner cells (NCI-H23), and human colon cancer cells (HCT-116) suspended in 0.2 ml HBSS/matrigel (50:50, V/V). When the tumor grew to have an average diameter of 7-8 mm and a volume of about 100-200 mm^3, 24 mice were picked up, and assigned to treatment groups (16 animals/2 groups), and a control group (8 animals). The 2 treatment groups were administered with the compounds ZTP and ZTQ dissolved in 15% Captsol respectively at a dose of 30 mg/kg and 60 mg/kg, and the control group only received an excipient (15% Captsol).
The same number of mice of each type was assigned to the control group and the treatment groups with the compounds ZTP and ZTQ respectively.
The dose schedule of the test compounds in the tumor transplanted nude mice was as follows: the compounds ZTP and ZTQ dissolved in 15% Captsol were daily orally administered as a 200 μl solution containing 0.75 mg of ZTP and 1.5 mg of ZTQ for 5 days/week over 3 consecutive weeks, followed by one-week break; and the control group was only administered with 200 μl of the placebo (15% Captsol) for 3 weeks, followed by 1 week of break. The two groups of animals were housed separately, and allowed to free access to food.
Evaluation of antitumor effect: the tumor size was measured every 3 or 4 days. The tumor volume was calculated using the equation below: […], in which a denotes the width (the shorter diameter), and b denotes the length (the longer diameter). Relative tumor volume (RTV) of each tumor refers to the ratio of the volume at a specified time to that at the beginning of the treatment. The average RTV for each treatment group was calculated. The antitumor activity was determined by calculating the tumor growth inhibition using a formula below. […]

[12] = Acute toxicity studies in mice; type: in vivo; conditions: for death of test mice: single dose of 500 mg/kg and divided doses of 100 mg/kg
Text: After tests, the mice were sacrificed for pathological analysis.

[13] = tested on: EC109; assay: MTT cytotoxicity, EC109; type: cell-based; conditions: Homo sapiens, ECa-109, EC109, Esophageal, 72 hrs, read-out: LC50 (the source's name)
Description: as §1

[14] = tested on: HT29; assay: MTT cytotoxicity, HT29; type: cell-based; conditions: Homo sapiens, HT-29, HT29, Colonic, 72 hrs, read-out: LC50 (the source's name)
Description: as §1

[15] = tested on: MDA-MB-435; assay: MTT cytotoxicity, MDA-MB-435; type: cell-based; conditions: Homo sapiens, MDA-MB-435, Breast, 72 hrs, read-out: LC50 (the source's name)
Description: as §1

[16] = tested on: U-251; assay: MTT cytotoxicity, U-251; type: cell-based; conditions: Homo sapiens, U-251, Glioblastoma, 72 hrs, read-out: LC50 (the source's name)
Description: as §1

[17] = tested on: PC3; assay: MTT cytotoxicity, PC3; type: cell-based; conditions: Homo sapiens, PC-3, PC3, Prostatic, 72 hrs, read-out: LC50 (the source's name)
Description: as §1

[18] = tested on: MEF; assay: MTT cytotoxicity, MEF normal mouse fibroblast; type: cell-based; conditions: cells still grow well at a concentration up to 30 μm
Description: [Worded in the source for another organism; this organism is reported under the same test.] as §1

[19] = MTT cytotoxicity, MEF normal mouse fibroblast; type: cell-based; conditions: MEF normal mouse fibroblasts; MEF, Normal mouse fibroblast; 72 hrs, MTT; read-out: LC50
Description: [Worded in the source for another organism; this organism is reported under the same test.] as §1

[20] = tested on: Caki-1; assay: MTT cytotoxicity, Caki-1; type: cell-based; conditions: Homo sapiens, Caki-1, Renal, 72 hrs, read-out: LC50 (the source's name)
Description: as §1

[21] = divided doses of 100 mg/kg, observed 4 weeks
[22] = single dose of 500 mg/kg, observed 1 week

Row | SMILES | CC50 [1] [nM] | CC50 [2] [nM] | CC50 [3] [nM] | CC50 [4] [nM] | CC50 [5] [nM] | CC50 [6] [nM] | CC50 [7] [nM] | CC50 at 72 h [8] [nM] | susceptibility of normal human mammary epithelial cells (MCF-10a) [9] | CC50 at 72 h [10] [µM] | TGI (T/C×100) [11] [%] | acute toxicity [12, 21] | death of test mice [12] | acute toxicity [12, 22] | CC50 [13] [nM] | CC50 [14] [nM] | CC50 [15] [nM] | CC50 [16] [µM] | CC50 [17] [nM] | susceptibility of normal mouse fibroblasts (MEFs) [18] | also measured
1 | CNC(=O)c1cc(Oc2ccc(NC(=S)Nc3ccc(Cl)c(C(F)(F)F)c3)cc2)ccn1 [ZTP, N-[4-chloro-3-(trifluoromethyl)phenyl]-[4-(N-methyl-formamide)(4-pyridyloxy)phenyl]-thiourea] | 1710 | 1310 | 1890 | 890 | 2410 | 870 | 1750 | 31 | insusceptible | > 30 | 29.2 | no obvious toxicity | no death occurs | no obvious toxicity | 1480 | 1190 | 1370 | 3.67 | 1310 | insusceptible | CC50 at 72 h [19]: > 30 µM; CC50 [20]: 1120 nM
2 | CNC(=O)c1cc(Sc2ccc(NC(=S)Nc3ccc(Cl)c(C(F)(F)F)c3)cc2)ccn1 [ZTQ, N-[4-chloro-3-(trifluoromethyl)phenyl]-[4-(N-methyl-formamide)(4-pyridylthio)phenyl]-thiourea] | 1230 | 1100 | 1310 | 710 | 1700 | 760 | 1260 | 19 | insusceptible | > 30 | 6.45 | no obvious toxicity | no death occurs | no obvious toxicity | 1120 | 920 | 1120 | 2.5 | 1050 | insusceptible | CC50 at 72 h [19]: > 30 µM; CC50 [20]: 910 nM
